Measurements taken from the supplement of paper PMC10307832.

Legend:
Assay in all cases: relative viability (nuclei count vs DMSO), 5 days (fraction); higher = more cells survive
NCI-H1792 = tested on: NCI-H1792
In short: (§1)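 Nuclei were stained with Hoechst during a one-step fixation (final 0.05% Triton X-100, 1% formaldehyde, 1 ug/ml Hoechst) carried out 5 days after dosing, then counted on 4× images. The cells, lung cancer lines in 1536-well plates, had been dosed by pin tool the day after seeding with one drug alone or a fixed anchor-drug dose plus five library-drug doses (not always all listed) in √10 steps. Relative viability is the nuclei count in treated wells divided by that in vehicle wells, and each value is the median of duplicate plates.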

201T = tested on: 201T
In short: as §1

NCI-H727 = tested on: NCI-H727
In short: as §1

NCI-H1793 = tested on: NCI-H1793
In short: as §1

HCC-827 = tested on: HCC-827
In short: as §1

NCI-H2087 = tested on: NCI-H2087
In short: as §1

NCI-H1650 = tested on: NCI-H1650
In short: as §1

NCI-H2228 = tested on: NCI-H2228
In short: as §1

NCI-H1395 = tested on: NCI-H1395
In short: as §1

NCI-H3122 = tested on: NCI-H3122
In short: as §1

NCI-H322M = tested on: NCI-H322M
In short: as §1

SK-LU-1 = tested on: SK-LU-1
In short: as §1

NCI-H2405 = tested on: NCI-H2405
In short: as §1

NCI-H1437 = tested on: NCI-H1437
In short: as §1

LCLC-103H = tested on: LCLC-103H
In short: as §1

NCI-H647 = tested on: NCI-H647
In short: as §1

LCLC-97TM1 = tested on: LCLC-97TM1
In short: as §1

RERF-LC-KJ = tested on: RERF-LC-KJ
In short: as §1

BEN = tested on: BEN
In short: as §1

LXF-289 = tested on: LXF-289
In short: as §1

CAL-12T = tested on: CAL-12T
In short: as §1

NCI-H1944 = tested on: NCI-H1944
In short: as §1

CCN(CC)CCCCNc1ncc2cc(-c3cc(OC)cc(OC)c3)c(NC(=O)NC(C)(C)C)nc2n1 + CC(=O)c1c(C)c2cnc(Nc3ccc(N4CCNCC4)cn3)nc2n(C2CCCC2)c1=O [Palbociclib] (partner 0.5 µM)
relative viability (NCI-H1792; first compound 0.01 µM): 0.66 | relative viability (NCI-H1792; first compound 0.03162 µM): 0.623 | relative viability (NCI-H1792; first compound 0.1 µM): 0.568 | relative viability (NCI-H1792; first compound 0.3162 µM): 0.562 | relative viability (NCI-H1792; first compound 1 µM): 0.639 | relative viability (201T; first compound 0.01 µM): 0.395 | relative viability (201T; first compound 0.03162 µM): 0.387 | relative viability (201T; first compound 0.1 µM): 0.406 | relative viability (201T; first compound 0.3162 µM): 0.389 | relative viability (201T; first compound 1 µM): 0.372 | relative viability (NCI-H727; first compound 0.01 µM): 0.581 | relative viability (NCI-H727; first compound 0.03162 µM): 0.635 | relative viability (NCI-H727; first compound 0.1 µM): 0.769 | relative viability (NCI-H727; first compound 0.3162 µM): 0.697 | relative viability (NCI-H727; first compound 1 µM): 0.59 | relative viability (NCI-H1793; first compound 0.01 µM): 0.288 | relative viability (NCI-H1793; first compound 0.03162 µM): 0.295 | relative viability (NCI-H1793; first compound 0.1 µM): 0.403 | relative viability (NCI-H1793; first compound 0.3162 µM): 0.277 | relative viability (NCI-H1793; first compound 1 µM): 0.269 | relative viability (HCC-827; first compound 0.01 µM): 0.49 | relative viability (HCC-827; first compound 0.03162 µM): 0.473 | relative viability (HCC-827; first compound 0.1 µM): 0.507 | relative viability (HCC-827; first compound 0.3162 µM): 0.644 | relative viability (HCC-827; first compound 1 µM): 0.454 | relative viability (NCI-H2087; first compound 0.01 µM): 0.154 | relative viability (NCI-H2087; first compound 0.03162 µM): 0.219 | relative viability (NCI-H2087; first compound 0.1 µM): 0.206 | relative viability (NCI-H2087; first compound 0.3162 µM): 0.234 | relative viability (NCI-H2087; first compound 1 µM): 0.225 | relative viability (NCI-H1650; first compound 0.01 µM): 0.311 | relative viability (NCI-H1650; first compound 0.03162 µM): 0.338 | relative viability (NCI-H1650; first compound 0.1 µM): 0.354 | relative viability (NCI-H1650; first compound 0.3162 µM): 0.308 | relative viability (NCI-H1650; first compound 1 µM): 0.296 | relative viability (NCI-H2228; first compound 0.01 µM): 1.23 | relative viability (NCI-H2228; first compound 0.03162 µM): 0.561 | relative viability (NCI-H2228; first compound 0.1 µM): 0.434 | relative viability (NCI-H2228; first compound 0.3162 µM): 0.862 | relative viability (NCI-H2228; first compound 1 µM): 0.513 | relative viability (NCI-H1395; first compound 0.01 µM): 0.637 | relative viability (NCI-H1395; first compound 0.03162 µM): 0.59 | relative viability (NCI-H1395; first compound 0.1 µM): 0.661 | relative viability (NCI-H1395; first compound 0.3162 µM): 0.546 | relative viability (NCI-H1395; first compound 1 µM): 0.448 | relative viability (NCI-H3122; first compound 0.01 µM): 0.184 | relative viability (NCI-H3122; first compound 0.03162 µM): 0.175 | relative viability (NCI-H3122; first compound 0.1 µM): 0.157 | relative viability (NCI-H3122; first compound 0.3162 µM): 0.194 | relative viability (NCI-H3122; first compound 1 µM): 0.179 | relative viability (NCI-H322M; first compound 0.01 µM): 0.516 | relative viability (NCI-H322M; first compound 0.03162 µM): 0.45 | relative viability (NCI-H322M; first compound 0.1 µM): 0.508 | relative viability (NCI-H322M; first compound 0.3162 µM): 0.504 | relative viability (NCI-H322M; first compound 1 µM): 0.474 | relative viability (SK-LU-1; first compound 0.01 µM): 0.457 | relative viability (SK-LU-1; first compound 0.03162 µM): 0.387 | relative viability (SK-LU-1; first compound 0.1 µM): 0.359 | relative viability (SK-LU-1; first compound 0.3162 µM): 0.434 | relative viability (SK-LU-1; first compound 1 µM): 0.309 | relative viability (NCI-H2405; first compound 0.01 µM): 0.567 | relative viability (NCI-H2405; first compound 0.03162 µM): 0.564 | relative viability (NCI-H2405; first compound 0.1 µM): 0.539 | relative viability (NCI-H2405; first compound 0.3162 µM): 0.534 | relative viability (NCI-H2405; first compound 1 µM): 0.52 | relative viability (NCI-H1437; first compound 0.01 µM): 0.319 | relative viability (NCI-H1437; first compound 0.03162 µM): 0.331 | relative viability (NCI-H1437; first compound 0.1 µM): 0.326 | relative viability (NCI-H1437; first compound 0.3162 µM): 0.303 | relative viability (NCI-H1437; first compound 1 µM): 0.285 | relative viability (LCLC-103H; first compound 0.01 µM): 0.473 | relative viability (LCLC-103H; first compound 0.03162 µM): 0.423 | relative viability (LCLC-103H; first compound 0.1 µM): 0.457 | relative viability (LCLC-103H; first compound 0.3162 µM): 0.48 | relative viability (LCLC-103H; first compound 1 µM): 0.466 | relative viability (NCI-H647; first compound 0.01 µM): 0.309 | relative viability (NCI-H647; first compound 0.03162 µM): 0.42 | relative viability (NCI-H647; first compound 0.1 µM): 0.427 | relative viability (NCI-H647; first compound 0.3162 µM): 0.497 | relative viability (NCI-H647; first compound 1 µM): 0.394 | relative viability (LCLC-97TM1; first compound 0.01 µM): 0.205 | relative viability (LCLC-97TM1; first compound 0.03162 µM): 0.203 | relative viability (LCLC-97TM1; first compound 0.1 µM): 0.297 | relative viability (LCLC-97TM1; first compound 0.3162 µM): 0.238 | relative viability (LCLC-97TM1; first compound 1 µM): 0.218 | relative viability (RERF-LC-KJ; first compound 0.01 µM): 1.07 | relative viability (RERF-LC-KJ; first compound 0.03162 µM): 1.12 | relative viability (RERF-LC-KJ; first compound 0.1 µM): 1.2 | relative viability (RERF-LC-KJ; first compound 0.3162 µM): 1.13 | relative viability (RERF-LC-KJ; first compound 1 µM): 1.05 | relative viability (BEN; first compound 0.01 µM): 0.489 | relative viability (BEN; first compound 0.03162 µM): 0.417 | relative viability (BEN; first compound 0.1 µM): 0.493 | relative viability (BEN; first compound 0.3162 µM): 0.524 | relative viability (BEN; first compound 1 µM): 0.475 | relative viability (LXF-289; first compound 0.01 µM): 0.628 | relative viability (LXF-289; first compound 0.03162 µM): 0.581 | relative viability (LXF-289; first compound 0.1 µM): 0.673 | relative viability (LXF-289; first compound 0.3162 µM): 0.61 | relative viability (LXF-289; first compound 1 µM): 0.559 | relative viability (CAL-12T; first compound 0.01 µM): 0.411 | relative viability (CAL-12T; first compound 0.03162 µM): 0.456 | relative viability (CAL-12T; first compound 0.1 µM): 0.518 | relative viability (CAL-12T; first compound 0.3162 µM): 0.419 | relative viability (CAL-12T; first compound 1 µM): 0.408 | relative viability (NCI-H1944; first compound 0.01 µM): 0.35 | relative viability (NCI-H1944; first compound 0.03162 µM): 0.345 | relative viability (NCI-H1944; first compound 0.1 µM): 0.312 | relative viability (NCI-H1944; first compound 0.3162 µM): 0.348 | relative viability (NCI-H1944; first compound 1 µM): 0.278
